According to US20260297542A1, “HERBICIDE RESISTANT PLANTS” (SYNGENTA CROP PROTECTION AG, priority 2023, published 2026):
Residue numbers refer to the chain shown, from its start.

Experiments:
Test in all cases: E. coli hemG growth inhibition by herbicide, AtPPO1 variant
Format in all cases: cell-based
Conditions in all cases: read-out: percentage growth inhibition
AtPPO1 G481N = target: T1, AtPPO1 G481N (Arabidopsis thaliana, UniProt P55826, G481N)
T1 construct: expressed in transfected cells; host or cells: E. coli BL21(DE3) hemG, pET24a plasmid
T1 sequence (P55826 35-537 G481N): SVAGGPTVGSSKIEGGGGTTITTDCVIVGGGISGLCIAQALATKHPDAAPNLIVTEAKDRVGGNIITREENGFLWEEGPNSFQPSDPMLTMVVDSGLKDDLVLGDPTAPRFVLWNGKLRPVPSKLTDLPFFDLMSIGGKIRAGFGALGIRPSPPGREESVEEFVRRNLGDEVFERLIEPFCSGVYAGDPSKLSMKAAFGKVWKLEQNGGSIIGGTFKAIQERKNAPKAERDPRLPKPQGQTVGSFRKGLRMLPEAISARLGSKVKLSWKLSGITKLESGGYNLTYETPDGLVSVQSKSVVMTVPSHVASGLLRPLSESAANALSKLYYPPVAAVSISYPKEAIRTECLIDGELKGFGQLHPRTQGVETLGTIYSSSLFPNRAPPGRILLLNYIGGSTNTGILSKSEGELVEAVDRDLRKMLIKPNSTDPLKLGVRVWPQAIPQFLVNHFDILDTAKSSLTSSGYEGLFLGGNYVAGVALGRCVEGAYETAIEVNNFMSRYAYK
In short: (§1)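 Read-out is OD600 at 24 h post inoculation, converted to percent growth inhibition relative to DMSO. The hemG-deleted BL21(DE3) host relied on the plasmid-borne AtPPO1 variant, induced with 0.1 mM IPTG, with 6.25 ppm herbicide 0 or E or 0.78 ppm herbicide B present at 37° C.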

AtPPO1 Y426C = target: T2, AtPPO1 Y426C (Arabidopsis thaliana, UniProt P55826, Y426C)
T2 construct: expressed in transfected cells; host or cells: E. coli BL21(DE3) hemG (pET24a, T7 promoter)
T2 sequence (P55826 35-537 Y426C): T1 sequence (P55826 35-537 G481N) with Y392C, N447G
In short: as §1

AtPPO1 A220C = target: T3, AtPPO1 A220C (Arabidopsis thaliana, UniProt P55826, A220C)
T3 construct: expressed in transfected cells; host or cells: E. coli BL21(DE3) hemG (hemG replaced by CmR), pET24a plasmid
T3 sequence (P55826 35-537 A220C): T1 sequence (P55826 35-537 G481N) with A186C, N447G
In short: as §1

AtPPO1 Y426V = target: T4, AtPPO1 Y426V (Arabidopsis thaliana, UniProt P55826, Y426V)
T4 construct: expressed in transfected cells; host or cells: E. coli BL21(DE3) hemG (pET24a, T7 promoter)
T4 sequence (P55826 35-537 Y426V): T1 sequence (P55826 35-537 G481N) with Y392V, N447G
In short: as §1

Compound	inhibition at 6.25 ppm (AtPPO1 G481N) [%]	inhibition at 6.25 ppm (AtPPO1 Y426C) [%]	inhibition at 6.25 ppm (AtPPO1 A220C) [%]	inhibition at 6.25 ppm (AtPPO1 Y426V) [%]	inhibition at 0.78 ppm (AtPPO1 G481N) [%]	inhibition at 0.78 ppm (AtPPO1 Y426C) [%]	inhibition at 0.78 ppm (AtPPO1 A220C) [%]	inhibition at 0.78 ppm (AtPPO1 Y426V) [%]
CCOC(=O)[C@]1(C)CC(c2cc(-n3c(=O)n(C)c(=S)n(C)c3=O)c(F)cc2Cl)=NO1 [Herbicide D, ethyl (5S)-3-[2-chloro-5-(3,5-dimethyl-2,6-dioxo-4-thioxo-1,3,5-triazinan-1-yl)-4-fluoro-phenyl]-5-methyl-4H-isoxazole-5-carboxylate]	14	34	33	16	–	–	–	–
C#CCN1C(=O)C(F)(F)Oc2cc(F)c(-n3c(=O)n(C)c(=S)n(C)c3=O)cc21 [Herbicide B, trifludimoxazin]	–	–	–	–	44	2	15	5
CC(C)N(C)S(=O)(=O)NC(=O)c1cc(-n2c(=O)cc(C(F)(F)F)n(C)c2=O)c(F)cc1Cl [Herbicide E, saflufenacil]	4	4	66	7	–	–	–	–
